Assay results taken from patent EP4349409A1, “COMPOUNDS FOR THE MANAGEMENT OF CELL STEMNESS AND INVASION IN CANCER AND RELATED DISEASES” (Instituto Biomar S.A., priority 2022, dated 2024).

Tests used:
G144 [1] = experiment: Scratch (wound healing) assay, G144; type: cell-based, human; settings: G144, 4.5µM, 24 h
Experimental: The effect of BMT9 in cell migration was evaluated using scratch assays, also known as wound healing assays. Cells were seeded in culture inserts for wound healing assays (Ibidi) at a cell density of 35,000 cells/cm^2; 24 h later the insert was removed to create the wound, and fresh medium was added with the corresponding treatment. Microscopy images were acquired at the time of treatment and 24 h later, using a Leica DMI3000 phase contrast microscope. Analysis was performed using the ImageJ software (Schindelin et al., 2012) and the MRI wound healing tool plugin (Suarez-Arnedo et al., 2020). Cell-free area was measured at the two indicated time points and the wound closure percentage relative to the starting point was calculated for each well individually. This assay was performed in G144 and in G179 cells (Figure 10 B and C, respectively).

[2] = Pharmacokinetics in plasma after intraperitoneal administration; type: in vivo; settings: female C57BL/6 mice, i.p. 100 mg/kg
Experimental: The Maximum Tolerated Dose (MTD) and Pharmacokinetics (PK) of BMT9 were determined after intraperitoneal administration to female C57BL/6 (~25 g) mice.
C57BL/6 female mice (9-13 weeks in age) were administered intraperitoneally with a single dose of BMT9 at 35, 50, 75, 100 or 200 mg/Kg. Total of 3 animals were used for each independent serial sampling experiment. The compound was dissolved in an appropriate vehicle (Cremophor:EtOH:H20 1:1:8). Body weight, distress and survival were monitored 1, 2, 4 hours and 8 hours post-administration and every day during the whole observation period. The MTD was set on the dose below the first dose that caused severe loss of body weight (>20%) or death of one or more animals of a dose group seven days after treatment. The MTD of BMT9 was therefore set on about […]. The concentrations of BMT9 in plasma was determined at different times per duplicate using a previously validated analytical method. The compound was injected via i.p at 100 mg/kg. Total of 3 animals were used for each independent serial sampling experiment. Blood samples were collected at 5, 15, 30 min, 1, 4, 10, 24, and 48 hours from each animal via cardiac puncture; […] withdrawn at each time point. 25 microliters of blood sample were then used for quantitative bioanalysis by HPLC-MS/MS. The fundamental pharmacokinetic parameters were obtained from the non-compartmental analysis using PK Solutions 2.0.2.

T98G = experiment: MTT-based cytotoxicity assay, T98G; type: cell-based; settings: Homo sapiens, 72 h
Experimental: (§1) A dose-response analysis of BMT9 (concentrations ranging from 4.5 µM-18 µM), BCNU (from 150 µM-500 µM) and TMZ (350 µM-700 µM) was performed in two conventional glioblastoma cell lines (T98G, U373) and the GNS cell line G144 by MTT-based cytotoxicity assays (Figure 5A-D). Cells were seeded on p96-well plates and treated with the different compounds for 72 h. Then, the MTT reagent (3-(4,5-Dimethyl-2-thiazolyl)-2,5-diphenyl-2H-tetrazolium bromide diluted in PBS to a concentration of 1mg/ml), was added to each well to a final concentration of 0.33mg/ml, and incubated for 3 h at 37°C. After that, the media was removed, and formazan crystals were solubilized with DMSO. Absorbance was measured at 560 nm using a "Synergy HT" plate reader (Biotek). In the graphs, the Y axis represents the percentage of cell viability relative to non-treated cells. The IC50, when reached are marked by a rectangle. DMSO treatment had no effect on cell viability.

GNSC = experiment: Immunostaining for Nestin, Tuj1 and GFAP (differentiation) in GNSC; type: cell-based; settings: 4.5 µM
Experimental: Moreover, we asked whether BMT9, at IC50 concentration, induced differentiation of these GNSC. For these experiments, cells were seeded under proliferation conditions and treated with BMT9 at 4.5 µM for 72 h. Cells were fixed with 3.7% paraformaldehyde for 15 min and immunostained with Nestin, Tuj1 and GFAP specific antibodies. Samples were analyzed using a Zeiss LSM800 confocal microscopy. To quantify the percentage of neural (Tuj-1) (Figure 7D) and astrocytic (GFAP+) (Figure 7E) differentiated cells, positive cells for each marker were manually counted and compared with the total number of cells.

GNSCs = experiment: Sphere-forming clonogenic assay of GNSCs; type: cell-based; settings: 4.5 µM and 9 µM, sphere forming conditions (data not shown)
Experimental: To further investigate whether BMT9 reduced stemness potential of the GNSCs, we performed a sphere-forming clonogenic assay. Cells were seeded on sphere forming conditions, that is 40,000 cells/ml without laminin coating. Cells were treated with BMT9 at 4.5 µM and 9 µM 24 h after seeding.

G144 [3] = experiment: MTT-based cytotoxicity assay, G144; type: cell-based, human; settings: for IC50: G144, MTT, 72 h
Experimental: as §1
Previous studies have reported that the molecular signature of the GNSC G144 cell line corresponds to a 'proneural' subtype of GB with NSC features (Pollard et al., 2009; Danovi et al., 2013). Thus, to test BMT9 specificity we compared cellular viability when treating CD133-positive cells (either GNSCs or normal human fetal neural stem cells-NSC) versus CD133-negative human embryonic fibroblast (HEFs) (Figure 8A). MTT-based cytotoxicity assay (Figure 7B-D) were performed as previously described.
While the first line therapy of gliomas has proven its effectiveness and improved clinical outcomes, acquired chemoresistance to alkylating agents has been identified as a major cause of treatment failure (Sarkaria et al., 2008). In a murine model of GB, long-term treatment with subtoxic TMZ doses enriched the side population of cancer stem cells, increasing the tumor aggressiveness (Bleau et al., 2009). Thus, we generated TMZ-resistant G144-clones that were selected upon treatment with TMZ either at 500 µM or 700 µM for several months (R500 and R700, respectively). The obtained clones maintained CD133 stem marker expression (Figure 9A). We then analyzed BMT9 dose-dependent effect on cell viability, by MTT assay, comparing the resistant clones to parental cells.

## C=C1C2CCC(C)(C3COc4c(C)c(OC)c5c(c4C3O)C(O)OC5=O)C1CCC2(C)C (stereo not drawn) [BMT9]
G144 [1]
  cell migration (wound closure): significantly impaired cell migration
[2]
  highest concentration in the plasma: 7611 ng/mL
  time at which plasma concentration reached the control levels post-administration: 24 h
  time of highest concentration in the plasma after injection: 4 h
T98G
  IC50: > 9 µM
GNSC; 72 h (data not shown)
  expression of the stem cell marker Nestin: reduced the expression of the stem cell marker Nestin
GNSC; 72 h, proliferating culture conditions
  neural differentiation (Tuj1 and GFAP positive cells): induced neural differentiation
GNSCs
  sphere generation: reduce sphere generation in a dose dependent manner
G144 [3]; G144, 72 h after treatment
  concentration as low as which still reduced viability: 2.25 µM
G144 [3]
  IC50: 4.5 µM
G144 [3]; GNSC (G144, CD133-positive), 1.125-4.5 µM
  cellular viability in long term culture: stronger effect against GNSC
G144 [3]; Homo sapiens
  IC50: < 4.5 µM
